Experimental data as given in patent US20080279957A1, “Immunomodulating compositions from bile” (Lorus Therapeutics Inc., priority 2000, published 2008).

What was measured:
human PBMN = test: Direct effect of composition on cytokine production by PBMN (IL-1α, IL-1β, IL-6, IL-8, GM-CSF, IFN-γ, IL-4; ELISA); type: cell-based; conditions: LPS 1 μg, 24 hrs
[1] = test system: human peripheral blood mononuclear cells (PBMN); test: Survival of PBMN, trypan blue dye exclusion; type: cell-based; conditions: Patient
Source text: At the end of this period, the number of surviving cells was estimated by trypan blue dye exclusion.

[2] = second LPS section, LPS 1 μg/well, 24 hrs
[3] = second LPS section, LPS 1 μg/well, 48 hrs
[4] = second LPS section, LPS 10 μg/well, 24 hrs
[5] = second LPS section, LPS 10 μg/well, 48 hrs

Substance Lipopolysaccharide [LPS] has a GM-CSF released (human PBMN) of 54 ± 20 pg/mL, an IFN-γ released (human PBMN) of 54 ± 94 pg/mL and an IL-1β released (human PBMN) of 965 ± 99 pg/mL. The IL-4 released (human PBMN) was <3.0 pg/mL, the IL-6 released (human PBMN) was 2016 ± 41 pg/mL and the IL-1α released (human PBMN; eight patient samples) was 315 ± 117 pg/mL. The “% viable” value ([1]; LPS 1 μg/well, 24 hrs) was 43%, the “No. of Live PBMN per Well by Trypan Blue” value ([1]; LPS 1 μg/well, 24 hrs) was 0.30 ×10^6 and the “% viable” value ([1]; LPS 1 μg/well, 48 hrs) was 40%. The “No. of Live PBMN per Well by Trypan Blue” value ([1]; LPS 1 μg/well, 48 hrs) was 0.28 ×10^6, the “% viable” value ([1]; LPS 10 μg/well, 24 hrs) was 36% and the “No. of Live PBMN per Well by Trypan Blue” value ([1]; LPS 10 μg/well, 24 hrs) was 0.25 ×10^6. The “% viable” value ([1]; LPS 10 μg/well, 48 hrs) was 18%, the “No. of Live PBMN per Well by Trypan Blue” value ([1]; LPS 10 μg/well, 48 hrs) was 0.13 ×10^6 and the “% viable” value [1, 2] was 46%. For the same substance, the “No. of Live PBMN per Well by Trypan Blue” value [1, 2] was 0.60 ×10^6, the “% viable” value [1, 3] was 41% and the “No. of Live PBMN per Well by Trypan Blue” value [1, 3] was 0.53 ×10^6. The “% viable” value [1, 4] was 12%, the “No. of Live PBMN per Well by Trypan Blue” value [1, 4] was 0.15 ×10^6 and the “% viable” value [1, 5] was 12%. For the same substance, the “No. of Live PBMN per Well by Trypan Blue” value [1, 5] was 0.15 ×10^6.
